Experimental data: patent US20230203023A1, “SALT AND CRYSTAL FORMS OF GLP-1R AGONISTS AND USES THEREOF” (QILU REGOR THERAPEUTICS INC., priority 2020, published 2023)
In brackets after ≈: the same amount, converted by molar mass. Like-named read-outs stand apart in the source and are kept apart here.

How the values were obtained:
[1] = Solid stability evaluation (I/II), XRPD and HPLC; type: physicochemical; settings: for Purity (area %): listed as Amorphous Free form
Method: To evaluate the physical and chemical stability of 1:1 Compound I Tris Salt (Form A) and amorphous free form, samples were stored under the conditions of 60° C. for 1 day and 25° C./60% RH or 40° C./75% RH for 1 week, respectively.
To evaluate the physical and chemical stability of 1:1 Compound II Citrate Salt (Form A), 1:1 Compound II Tris Salt (Form B) and freeform, samples were stored under the conditions of 60° C. for 1 day and 25° C./60% RH or 40° C./75% RH for 1 week, respectively.

[2] = Kinetic solubility test in water and bio-relevant media (SGF, FaSSIF, FeSSIF); type: physicochemical; settings: for solubility at 1 h: 37 °C, thermodynamic from solid, read-out: S: solubility; for solubility at 1 h / S: solubility: 37° C.; for Purity (%), area percentage of API: for reference only (suspensions); for FC: form change: residual solids by XRPD; for pH: supernatant
Method: Weigh 100 mg of sodium chloride and 50 mg of Triton X-100 into a 50-mL volumetric flask. Add appropriate volume of purified water and sonicate until all solids are completely dissolved. Add about 68 μL of 12 M HCl and sufficient purified water closely to the target volume and adjust to pH 1.8. Dilute to volume with purified water, mix well and check the pH with a pH meter.
Weigh 170 mg of sodium phosphate monobasic, 21 mg of sodium hydroxide and 310 mg of sodium chloride, 110 mg of SIF powder into a 50-mL volumetric flask. Add appropriate volume of purified water and sonicate until all solids are completely dissolved. Add sufficient purified water closely to the target volume and adjust to pH 6.5. Dilute to volume with purified water, mix well and check the pH with a pH meter.
Weigh 0.41 mL of glacial acetic acid, 202 mg of sodium hydroxide and 594 mg of sodium chloride, 560 mg of SIF powder into a 50-mL volumetric flask. Add appropriate volume of purified water to dissolve the solids. Then add sufficient purified water closely to the target volume and adjust to pH 5.0. Dilute to volume with purified water, mix well and check the pH with a pH meter.
Kinetic solubility was evaluated in water and three bio-relevant media (SGF, FaSSIF and FeSSIF) for 1/4/24 hours. 3-4 mg of solids were suspended in 3 mL each medium (solid loading: 1 mg/mL, calculated using freeform) to get a suspension, followed by rolling (25 rpm) at 37° C. for 1/4/24 hours. At each time point, ˜1.0 mL of suspension was sampled out for centrifugation (12000 rpm, 2 min) and filtration through 0.45 μm PTFE membrane to obtain supernatant for HPLC and pH tests, the residual solids were analyzed by XRPD.
Kinetic solubility was evaluated for 1:1 Compound II Citrate Salt (Form A), 1:1 Compound II Tris Salt (Form B), and freeform of Compound II in water and three bio-relevant media (SGF, FaSSIF and FeSSIF) for 1/4/24 hours. 3-4 mg of solids were suspended in 3 mL each medium (solid loading:
1 mg/mL, calculated using freeform) to get a suspension, followed by rolling (25 rpm) at 37° C. for 1/4/24 hours. At each time point, ˜1.0 mL of suspension was sampled out for centrifugation (12000 rpm, 2 min) and filtration through 0.45 μm PTFE membrane to obtain supernatant for HPLC and pH tests, the residual solids were analyzed by XRPD. […] The purity results were for reference only since the samples were all suspensions.

[3] = FaSSIF, 4 hours, listed as Free form amorphous
[4] = FaSSIF, 24 hours, listed as Free form amorphous
[5] = FeSSIF, 1 hour, listed as Free form amorphous
[6] = FeSSIF, 4 hours, listed as Free form amorphous
[7] = FeSSIF, 24 hours, listed as Free form amorphous
[8] = H2O, 1 hour, listed as Free form amorphous
[9] = H2O, 4 hours, listed as Free form amorphous
[10] = H2O, 24 hours, listed as Free form amorphous
[11] = SGF, 1 hour, listed as Free form amorphous
[12] = SGF, 4 hours, listed as Free form amorphous
[13] = SGF, 24 hours, listed as Free form amorphous

O=C(O)c1ccc2nc(CN3CC=C(c4cccc(OCc5ccc(Cl)cc5F)c4)CC3)n(C[C@@H]3CCO3)c2c1 [Compound I, (S)-2-((4-(3-((4-chloro-2-fluorobenzyl)-oxy)phenyl)-3,6-dihydropyridin-1(2H)-yl)methyl)-1-(oxetan-2-ylmethyl)-1H-benzo[d]-imidazole-6-carboxylic acid]
Form change ([1]; 25° C./60% RH (open), 1 week): No
Observation ([1]; 25° C./60% RH (open), 1 week): Yellowish
Purity (area %) ([1]; 25° C./60% RH (open), 1 week): 93.06 area %
Purity (area %) ([1]; 40° C./75% RH (open), 1 week): 89.59 area %
Form change ([1]; 60° C. (capped), 1 day): No
Observation ([1]; 60° C. (capped), 1 day): Yellowish
Purity (area %) ([1]; 60° C. (capped), 1 day): 86.88 area %
Form change ([1]; Initial): No
Observation ([1]; Initial): White powder
Purity (area %) ([1]; Initial): 94.71 area %
solubility at 1 h ([2]; FaSSIF, pH 6.5, fassif, FaSSIF, 1 hour): 200 µg/mL (≈ 356 µM)
Purity (%), area percentage of API ([2]; FaSSIF, 1 hour, listed as Free form amorphous): 93.54%
S: solubility [2, 3]: 80 µg/mL
Purity (%), area percentage of API ([2]; FaSSIF, 4 hours): 49.59%
S: solubility [2, 4]: 40 µg/mL
Purity (%), area percentage of API [2, 4]: 63.24%
solubility at 1 h ([2]; FeSSIF, pH 5, fessif, FeSSIF, 1 hour): 400 µg/mL (≈ 712 µM)
Purity (%), area percentage of API [2, 5]: 94.78%
S: solubility [2, 6]: 500 µg/mL
Purity (%), area percentage of API [2, 6]: 91.80%
S: solubility [2, 7]: 400 µg/mL
Purity (%), area percentage of API [2, 7]: 77.57%
S: solubility [2, 8]: 30 µg/mL
Purity (%), area percentage of API [2, 8]: 100.00%
S: solubility [2, 9]: 20 µg/mL
Purity (%), area percentage of API [2, 9]: 87.13%
S: solubility [2, 10]: <LOQ
Purity (%), area percentage of API [2, 10]: 9.97%
S: solubility ([2]; SGF, 1 hour): 400 µg/mL
Purity (%), area percentage of API [2, 11]: 93.07%
S: solubility [2, 12]: 600 µg/mL
Purity (%), area percentage of API [2, 12]: 94.02%
S: solubility [2, 13]: 800 µg/mL
Purity (%), area percentage of API [2, 13]: 91.48%
FC: form change ([2]; FaSSIF, 1 hour): No
FC: form change ([2]; FaSSIF, 4 hours): No
FC: form change [2, 4]: Yes
FC: form change ([2]; FeSSIF, 1 hour): No
FC: form change ([2]; FeSSIF, 4 hours): No
FC: form change ([2]; FeSSIF, 24 hours): No
FC: form change ([2]; H2O, 1 hour): No
FC: form change ([2]; H2O, 4 hours): No
FC: form change ([2]; H2O, 24 hours): No
FC: form change [2, 11]: No
FC: form change [2, 12]: No
FC: form change [2, 13]: No
pH ([2]; FaSSIF, 1 hour): 6.5
pH [2, 3]: 6.5
pH [2, 4]: 6.4
pH [2, 5]: 5.0
pH ([2]; FeSSIF, 4 hours): 5.0
pH ([2]; FeSSIF, 24 hours): 5.0
pH [2, 8]: 8.4
pH [2, 9]: 7.3
pH [2, 10]: 6.8
pH [2, 12]: 1.9
